Data from patent US5430148A, “Antiproliferative quinazolines” (Agouron Pharmaceuticals, Inc., priority 1992, dated 1995).
Read-outs that look alike come from different tables or passages of the source.

Key:
[1] = target: human TS (thymidylate synthase) (Homo sapiens, UniProt P04818); experiment: Inhibition constants against 5,10-methylenetetrahydrofolate for thymidylate synthase, human enzyme (tritium release); assay type: biochemical; details: cofactor as variable substrate, pH 7.6, 24° C.
Description: (§1) Determination of Inhibition Constants Against 5,10-Methylenetetrahydrofolate for the Enzyme Thymidylate Synthase
(§2) Inhibition constants, Ki, slope and Ki, intercept [W. W. Cleland, Biochim. Biophys. […] The cofactor was present as the variable substrate under conditions of saturating radiolabelled 2'-deoxyuridine 5-monophosphate (dUMP). […] Assays of human TS also contained 1-5 μg/mL bovine serum albumin to stabilize the protein. Reactions were initiated by the addition of enzyme and were carried out for 5 minutes at 24° C., and then quenched by the addition of charcoal (15 mg in 0.1 mL H2 O). The quenched samples were centrifuged at 10,000 rpm for 12-15 min at […] to remove unreacted dUMP which had bound to the charcoal, and 0.1 mL of the supernatant was counted by liquid scintillation in the presence of 5 mL ecolume to determine the release of tritium label from the 5-position of the dUMP. […] Experimental results were analyzed by EZ-FIT, a nonlinear regression analysis program (Perrella Scientific, Springfield, Pa.) which was used to fit all data points simultaneously to a mixed noncompetitive inhibition scheme.

GC3/M TK- cells = experiment: Inhibition of growth of tumor cells, thymidine kinase-deficient human colon adenocarcinoma GC3/M TK- (MTT); assay type: cell-based; details: for IC50: read-out: Cell Culture IC50, GC3-M (TK-)
Description: (§3) In Vitro Testing to Determine Inhibition of Growth of Tumor Cells
(§4) Growth was measured over 3 days (L1210) or 5 days (CCRF-CEM, GC3 /M TK^-) of continuous exposure to varying concentrations of each test compound, added 4 h. after initial cell plating, by the MTT-tetrazolium reduction assay of T. J. Mosmann [J. Immunol. Meth. […] Water insoluble derivatives were dissolved in DMSO and diluted to a final concentration of 0.5% solvent in cell cultures.

[2] = tested on: L1210 murine leukemia cells; experiment: Inhibition of growth of tumor cells, L1210 murine leukemia (MTT); assay type: cell-based; details: for IC50: read-out: Cell Culture IC50, L1210; for inhibition at 50 µM: read-out: growth inhibition, L1210
Description: as §3, §4

CCRF-CEM cells = experiment: Inhibition of growth of tumor cells, CCRF-CEM human lymphoblastic leukemia (MTT); assay type: cell-based; details: for IC50: read-out: Cell Culture IC50, CCRF-CEM; for inhibition at 50 µM: read-out: growth inhibition, CCRF-CEM
Description: as §3, §4

[3] = target: E. coli TS (thymidylate synthase) (Escherichia coli, UniProt P0A884); experiment: Inhibition constants against 5,10-methylenetetrahydrofolate for thymidylate synthase, E. coli enzyme (tritium release); assay type: biochemical
Chain of E. coli TS (thymidylate synthase) (P0A884 whole entry): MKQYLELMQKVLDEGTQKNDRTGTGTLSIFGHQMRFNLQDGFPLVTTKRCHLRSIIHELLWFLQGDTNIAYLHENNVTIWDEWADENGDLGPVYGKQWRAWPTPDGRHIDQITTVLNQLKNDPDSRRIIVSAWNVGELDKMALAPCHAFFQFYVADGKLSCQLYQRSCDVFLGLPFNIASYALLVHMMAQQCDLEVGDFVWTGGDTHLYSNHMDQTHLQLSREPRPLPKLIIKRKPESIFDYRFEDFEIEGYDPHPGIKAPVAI
Description: as §1, §2

[4] = read-out: Ki Data, human thymidylate synthase
[5] = Homo sapiens, GC3/MTK-, 120 h, 5 days continuous exposure, MTT
[6] = Ki Data, human thymidylate synthase
[7] = Mus musculus, L1210, 72 h, 3 days continuous exposure, MTT
[8] = Mus musculus, L1210, 72 h, @ > 50 μM, 3 days
[9] = Homo sapiens, CCRF-CEM, 120 h, 5 days continuous exposure, MTT
[10] = Homo sapiens, CCRF-CEM, 120 h, @ > 50 μM, 5 days
[11] = 3 days continuous exposure, MTT
[12] = 5 days continuous exposure, MTT

Chain of human TS (thymidylate synthase) (P04818 2-313 limits assumed): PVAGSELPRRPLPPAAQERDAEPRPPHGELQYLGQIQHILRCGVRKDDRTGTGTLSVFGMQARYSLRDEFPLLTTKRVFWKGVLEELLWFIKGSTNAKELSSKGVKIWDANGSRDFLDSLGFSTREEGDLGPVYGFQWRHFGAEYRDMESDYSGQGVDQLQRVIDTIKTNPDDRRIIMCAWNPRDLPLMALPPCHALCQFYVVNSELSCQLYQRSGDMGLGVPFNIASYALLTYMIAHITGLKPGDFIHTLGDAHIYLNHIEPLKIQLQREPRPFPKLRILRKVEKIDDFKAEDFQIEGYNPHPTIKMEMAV

Compound | Ki [1, 4] [µM] | IC50 (GC3/M TK- cells; [5]) [µM] | Ki [1, 6] [µM] | IC50 [2, 7] [µM] | IC50 (CCRF-CEM cells; [9]) [µM] | Ki [3] [µM] | further results
Cc1nc2ccc(C)c(Sc3ccnnc3)c2c(=O)[nH]1 [Compound 29A] | 0.12 ± 0.02 | > 12.5 |  |  |  |  | 
Cc1nc2ccc(C)c(Sc3ccc(C(=O)O)cc3)c2c(=O)[nH]1 [Compound 28A, 4-[(3,4-Dihydro-2,6-dimethyl-4-oxo-5-quinazolinyl)thio]-benzoic acid] |  | > 50 | 0.115 | > 50 | > 50 |  | inhibition at 50 µM [2, 8]: 27%; growth inhibition, CCRF-CEM (CCRF-CEM cells; @ > 50 μM, 5 days): none; growth inhibition, GC3-M (TK-) (GC3/M TK- cells; @ > 50 μM, 5 days): none
COc1ccc2nc(C)[nH]c(=O)c2c1Sc1ccncc1 [Compound 13A, 3,4-Dihydro-6-methoxy-2-methyl-4-oxo-5-(4-pyridylthio)-quinazoline] |  | 32 |  | 21 | 26 |  | 
Cc1ccc2nc(N)[nH]c(=O)c2c1Sc1ccnnc1 [Compound 30A] | 0.011 | 1.5 |  | 1.6 | 0.88 |  | 
Cc1nc2ccc(C)c(Sc3cccnc3)c2c(=O)[nH]1 [Compound 21A] |  |  | 190 ± 25 |  |  |  | IC50 ([2]; Mus musculus, L1210, 72 h): > 50 µM; inhibition at 50 µM ([2]; Mus musculus, L1210, 72 h): 28%; IC50 (CCRF-CEM cells; Homo sapiens, CCRF-CEM, 120 h): > 50 µM; inhibition at 50 µM (CCRF-CEM cells; Homo sapiens, CCRF-CEM, 120 h): 42%; growth inhibition, GC3-M (TK-) (GC3/M TK- cells; @ > 50 μM, 5 days): none; IC50 (GC3/M TK- cells; Homo sapiens, GC3/MTK-, 120 h): > 50 µM
Cc1nc2ccc(C)c(Sc3ccc(C(=O)N[C@@H](CCC(=O)O)C(=O)O)cc3)c2c(=O)[nH]1 [Compound 27A, N-[4-((3,4-Dihydro-2,6-dimethyl-4-oxo-5-quinazolinyl)thio)benzoyl]-L-glutamic acid] |  | 4.1 | 0.00795 | 1.05 | 0.99 |  | 
Cc1nc2cccc(C(O)(c3ccccc3)c3ccccc3)c2c(=O)[nH]1 [Compound 6A, 3,4-Dihydro-5-(α-diphenyl-hydroxymethyl)-2-methyl-4-oxo-quinazoline] | > 10 | > 4.98 |  | 2.3 | 4 | > 10 | 
Cc1nc(O)c2c(Oc3ccccc3)cccc2n1 [Compound 1A] |  |  |  |  |  | > 100 | 
Cc1nc2cccc(Sc3ccncc3)c2c(=O)[nH]1 [Compound 7A] | 2.1 ± 0.5 | > 26.9 |  |  | > 26.9 | 38 ± 5 | growth inhibition, L1210 ([2]; @ 20 um, 3 days): 68%; inhibition at 26.9 µM (CCRF-CEM cells; Homo sapiens, CCRF-CEM, 120 h, @ > 26.9 μM, 5 days): 37%; growth inhibition, GC3-M (TK-) (GC3/M TK- cells; @ > 26.9 μM, 5 days): none
Cc1nc2ccc(C)c(Sc3ccnc(C(F)(F)F)c3)c2c(=O)[nH]1 [Compound 17A, 3,4-Dihydro-2,6-dimethyl-4-oxo-5-[4-(6-trifluoromethylpyridylthio)]-quinazoline] | 0.13 ± 0.03 |  |  |  |  |  | 
Cc1ccc2nc(N)[nH]c(=O)c2c1Sc1ccnc(C(F)(F)F)c1 [Compound 18A, 2-Amino-3,4-dihydro-6-methyl-4-oxo-5-[4-(6-trifluoromethylpyridylthio)]-quinazoline] |  | > 2 |  | 1.8 | > 2 |  | inhibition at 2 µM (CCRF-CEM cells; Homo sapiens, CCRF-CEM, 120 h, @ > 2.0 μM, 5 days): 33%; inhibition at 2 µM (GC3/M TK- cells; Homo sapiens, GC3/MTK-, 120 h, @ > 2.0 μM, 5 days): 33%
Cc1nc2ccc(C)c(Sc3ccc(S(=O)(=O)c4ccccc4)cc3)c2c(=O)[nH]1 [Compound 9A] |  | 4.5 |  | 1.8 | 2.1 |  | 
Cc1nc2ccc(C)c(Sc3ccc([N+](=O)[O-])cc3)c2c(=O)[nH]1 [Compound 10A] |  | > 4 | 0.083 ± 0.011 | 3 | 2.9 | 0.75 ± 0.08 | 
Cc1nc2cccc(Sc3ccccn3)c2c(=O)[nH]1 [Compound 20A] |  | > 50 | 61 ± 17 | > 50 | > 50 | 311 ± 99 | inhibition at 50 µM [2, 8]: 40%; inhibition at 50 µM (CCRF-CEM cells; [10]): 20%; growth inhibition, GC3-M (TK-) (GC3/M TK- cells; @ > 50 μM, 5 days): none
Cc1nc(O)c2c(Sc3ccccc3)cccc2n1 [Compound 2A] |  |  |  |  |  | > 10 | 
Cc1ccc2nc(N)[nH]c(=O)c2c1Sc1ccncc1 [Compound 25A] |  |  |  |  |  |  | IC50 [2, 11]: 0.59 µM; IC50 (CCRF-CEM cells; [12]): 1.1 µM; IC50 (GC3/M TK- cells; [12]): 1.7 µM
Cc1nc2cccc(Sc3cc[n+](Cc4ccccc4)cc3)c2c(=O)[nH]1 [Compound 22A] | 1.1 ± 0.3 | > 2.5 |  | > 2.5 | > 2.5 | 9.3 ± 1.6 | inhibition at 2.5 µM ([2]; Mus musculus, L1210, 72 h, @ > 2.5 μM, 3 days): 4%; growth inhibition, CCRF-CEM (CCRF-CEM cells; @ > 2.5 μM, 5 days): none; growth inhibition, GC3-M (TK-) (GC3/M TK- cells; @ > 2.5 μM, 5 days): none
Cc1nc2ccc(C)c(Sc3nnc(C)s3)c2c(=O)[nH]1 [Compound 11A] | 2 ± 0.4 | > 3.33 |  | > 3.33 | > 3.33 | 21 ± 13 | growth inhibition, L1210 ([2]; @ > 3.33 μM, 3 days): none; inhibition at 3.33 µM (CCRF-CEM cells; Homo sapiens, CCRF-CEM, 120 h, @ > 3.33 μM, 5 days): 17%; growth inhibition, GC3-M (TK-) (GC3/M TK- cells; @ > 3.33 μM, 5 days): none
COc1cc(Sc2c(C)ccc3nc(C)[nH]c(=O)c23)ccn1 [Compound 16A, 3,4-Dihydro-2,6-dimethyl-4-oxo-5-[4-(6-methoxypyridylthio)]quinazoline] |  | > 5 | 0.048 ± 0.006 |  |  | 0.76 ± 0.12 | 
Cc1nc2ccc(O)c(Sc3ccncc3)c2c(=O)[nH]1 [Compound 15A, 3,4-Dihydro-6-hydroxy-2-methyl-4-oxo-5-(4-pyridylthio)-quinazoline] | 19 ± 11 | > 50 |  | > 50 | > 50 |  | inhibition at 50 µM [2, 8]: 27%; inhibition at 50 µM (CCRF-CEM cells; [10]): 40%; inhibition at 50 µM (GC3/M TK- cells; Homo sapiens, GC3/MTK-, 120 h, @ > 50 μM, 5 days): 4%
Cc1nc2ccc(C)c(Sc3ccncc3)c2c(=O)[nH]1 [Compound 8A, 3,4-Dihydro-2,6-dimethyl-4-oxo-5-(4-pyridylthio)-quinazoline] |  | 6 | 0.062 | 3.5 | 5.2 | 0.89 ± 0.28 | 
Cc1nc2cccc(Cn3cncc3-c3ccccc3)c2c(=O)[nH]1 [Compound 31A] | 51 ± 2.2 | > 50 |  | 48 | > 50 | 21 ± 6 | 
Cc1nc2cccc(Cn3ccc4cc(Cl)ccc43)c2c(=O)[nH]1 [Compound 3A, 5-Chloro-N-[(3,4-dihydro-2-methyl-4-oxo-5-quinazolyl)methyl]indole] | > 3 | > 12.7 |  |  | > 12.3 | > 3 | inhibition at 12.3 µM (CCRF-CEM cells; Homo sapiens, CCRF-CEM, 120 h, > 12.3 μM, 5 days): 10%; inhibition at 12.7 µM (GC3/M TK- cells; Homo sapiens, GC3/MTK-, 120 h, > 12.7 μM, 5 days): 20%
COc1ccc(-c2cncn2Cc2cccc3nc(C)[nH]c(=O)c23)cc1 [Compound 33A] | 47 ± 17 | > 25 |  | 25 | 18 | 36 ± 1.5 | inhibition at 25 µM (GC3/M TK- cells; Homo sapiens, GC3/MTK-, 120 h, @ > 25 μM, 5 days): 20%
Cc1ccc2nc(N)[nH]c(=O)c2c1Sc1ccncc1 [Compound 24A] |  | 1.2 |  | 0.55 | 1.1 |  | 
Cc1nc2ccc(C)c(Sc3ccnc(N(C)C)c3)c2c(=O)[nH]1 [Compound 26A, 3,4-Dihydro-2,6-dimethyl-4-oxo-5-[4-(6-dimethylaminopyridylthio)]-quinazoline] |  | 18 | 0.079 | 4.05 | 10.5 |  | 
Cc1ccc2nc(N)[nH]c(=O)c2c1Sc1ccncc1 [Compound 14A, 2-Amino-3,4-dihydro-6-methyl-4-oxo-5-(4-pyridylthio)-quinazoline] |  | 1 |  | 1 | 0.81 | 0.15 ± 0.03 | 
Cc1nc2ccc(C)c(Sc3ccncc3)c2c(=O)[nH]1 [Compound 23A] |  |  | 0.13 ± 0.009 |  |  |  | IC50 [2, 11]: 3.5 µM; IC50 (CCRF-CEM cells; [12]): 5.1 µM; IC50 (GC3/M TK- cells; [12]): 6.1 µM
